# Laboratory results: article PMC8026324, “In Vitro Antiplasmodial, Heme Polymerization, and Cytotoxicity of Hydroxyxanthone Derivatives” (Journal of Tropical Medicine, 2021)
# How the values were obtained:
# [1] = tested on: P. falciparum strain 3D-7; design: method as in doi:10.22159/ajpcr.2017.v10i12.19858; conditions: cited from earlier work; for IC50: read-out: antiplasmodial IC50 on P. falciparum strain 3D-7
# [2] = tested on: Plasmodium falciparum 3D-7 (chloroquine-sensitive strain); test: In vitro antiplasmodial activity assay, microscopic method, strain 3D-7; format: cell-based; conditions: for IC50: 72 hours incubation, microscopic method, read-out: IC50 on P. falciparum 3D-7; for antiplasmodial activity category on P. falciparum 3D-7: category by IC50
# Method: (§1) The test of antiplasmodial activity began with the culture of P. falciparum 3D-7 and FCR-3 using the modified Trager and Jensen method. The plasmodium was cultured in human O red blood cells diluted to 3% haematocrit in RPMI 1640 medium complemented with 10% human O serum. The medium was made by adding 10.43 g of powder RPMI 1640, 6 g HEPES, 2 g NaHCO3, 25 mg gentamycin, and sterile distilled water up to 1 L. The medium pH was adjusted so that it reached ±7.2. It was sterilized using a 0.22 μm filter and stored at 4°C. The complete plasmodium culture medium was made by adding human serum with a concentration of 10% in the medium. The plasmodium culture was incubated in candle jar in an incubator with a temperature of 37°C and was observed every 24 hours.
# (§2) The plasmodium was synchronized to obtain the ring stage by adding 5% of D-sorbitol. The plasmodium was transferred from culture flask to a conical tube, and then it was centrifuged with a speed of 1000 rpm for 10 minutes. After the supernatant was disposed, the sterile 5% sorbitol was added and incubated for 10 minutes at a temperature of 37°C. The plasmodium suspension was centrifuged again; the supernatant was disposed and the plasmodium was washed by adding culture medium. Then, the plasmodium suspension was centrifuged again, and the supernatant was discarded, resulting in a plasmodium in ring stage only. The parasitemia was calculated from a thin blood preparation. The test used 1% parasitemia at 2% haematocrit in RPMI medium which complemented with 10% human O serum.
# (§3) Each testing compound was dissolved in RPMI medium. The testing compound in various concentrations with volume of 100 μL was incorporated into the 96-well microplate, and then 100 μL of Plasmodium suspension was added. Each series of concentrations was replicated three times. The microplate was incubated at a temperature of 37°C for 72 hours. At the end of the incubation, a thin blood smear was made using 10% Giemsa stain and observed under a light microscope at 1000x magnification. The percentage of parasitemia (counting a minimum of 1,000 erythrocytes) was calculated from the preparation of thin blood and then used to calculate the percentage of plasmodium growth inhibition. […] Antiplasmodial activity is expressed as IC50, which is the concentration of a compound that is required for 50% inhibition of plasmodium growth. The IC50 value was calculated by probit analysis using SPSS software (IBM Corp., Chicago). The lower the IC50 value obtained, the greater the antiplasmodial activity.
# [3] = tested on: Plasmodium falciparum FCR-3 (chloroquine-resistant strain); test: In vitro antiplasmodial activity assay, microscopic method, strain FCR-3; format: cell-based; conditions: for IC50: 72 hours incubation, microscopic method, read-out: IC50 on P. falciparum FCR-3; for antiplasmodial activity category on P. falciparum FCR-3: category by IC50
# Method: as §1, §2, §3
# [4] = tested on: Vero cells; test: In vitro cytotoxicity test, MTT assay on Vero cell line; format: cell-based; conditions: for IC50: MTT assay; for Selectivity index 3D-7: ratio IC50 on Vero cell/IC50 on P. falciparum 3D-7; for Selectivity index FCR-3: ratio IC50 on Vero cell/IC50 on P. falciparum FCR-3
# Method: The in vitro cytotoxicity test was conducted using the 3-(4,5-dimethylthiazol-2-yl)2,5-diphenyltetrazolium bromide (MTT) assay method on Vero cell line culture using the Anderson et al.'s modified method.
# The cell was removed from the cryo medium. Then, the cell was thawed at 37°C. The liquid cell was subsequently transferred to the tube and a culture medium was added to a volume of 10 mL. Then, the suspension was centrifuged for 15 minutes so that it would form cell pellets. The supernatant was removed and 1 mL of culture medium was added to the cell pellets. Finally, the suspension was transferred to the Petri dish and incubated in the incubator with 5% of CO2 at 37°C.
# The medium of Vero cell culture was removed, and then the cell was washed using a PBS solution with a volume of PBS ± 1/2 of the initial medium volume. This step was done twice and 1 mL of trypsin 0.25% was added. Subsequently, the cell was incubated in the CO2 incubator at 37°C for 3 minutes. Then, the cell was resuspended using 2 mL of culture medium and PBS solution was added up to 10 mL. The suspension was centrifuged for 15 minutes so that it formed pellets. Pellets were added with 1 mL of culture medium and resuspended. Take 10 μL of the cell suspension and density of cells was calculated.
# Then, the cell was added with culture medium to 10 mL. A total of 100 μL of such suspensions was transferred into each well of the 96-well microplate, but three of the wells were emptied as medium controls. Subsequently, the microplate was incubated in a 5% CO2 incubator at 37°C.
# Each hydroxyxanthone derivative compound was dissolved in DMSO, and a variety of concentrations were prepared in the medium. Each concentration of the testing compound was added into the 96-well microplate triplicately. Cell control and medium control were not given a testing compound solution. The medium control remained blank, while the cell control contained culture medium only. […] Then, the cell was incubated in a 5% CO2 incubator at 37°C for 24 hours.
# After the cell was incubated for 24 hours, the medium was discarded and washed with PBS. Then, each well was added with 100 μL of 5 mg/mL of MTT solution. The 96-well microplate was incubated again in the incubator of CO2 at 37°C for 4 hours. Then, 100 μL of 10% of SDS in 0.01 MHCl was added. The cells were placed in a dark room at room temperature for 24 hours.
# The absorbance was measured using the enzyme-linked immunosorbent assay (ELISA) reader at 595 nm wavelength. The cytotoxicity test on the Vero cells was done by calculating the percentage of Vero cell inhibition of the absorption value of the test compound, cell control, and medium control. The cytotoxic effect was expressed as IC50. The IC50 value was obtained from the probit analysis by using SPSS software (IBM Corp., Chicago). The degree of selectivity was expressed as a selectivity index. The selectivity index was obtained from the ratio between the IC50 cytotoxic effect on Vero cells and IC50 antiplasmodial activity on Plasmodium. A compound is said to be safe if the value of the selectivity index is >10 [20].
# [5] = tested on: MCF-7; design: method as in earlier work; conditions: cited from earlier work
# [6] = tested on: WIDR; design: method as in earlier work; conditions: cited from earlier work
# [7] = tested on: Hela; design: method as in earlier work; conditions: cited from earlier work
# [8] = tested on: heme polymerization; design: method as in PMID 9199506; conditions: cited from earlier work
# [9] = Chlorocebus sabaeus, Vero, 24 h, 24 hours incubation
compound,measurement,setting,value
"O=c1c2cc(O)ccc2oc2ccc(O)cc12 [2,7-dihydroxyxanthone]",IC50,[1],1.34 µM
O=c1c2ccccc2oc2ccc(O)cc12 [2-hydroxyxanthone],antiplasmodial IC50,[1],4.385 µg/mL
same,IC50,[1],20.7 µM
"O=c1c2cccc(Cl)c2oc2cccc(O)c12 [HX4, 1-hydroxy-5-chloroxanthone]",inhibition at 50.68 µM,"[2]; Plasmodium falciparum, 50.68 μM, read-out: Growth inhibition of P. falciparum Strain 3D-7",46.5 ± 0.8%
same,inhibition at 101.36 µM,"[2]; Plasmodium falciparum, 101.36 μM, read-out: Growth inhibition of P. falciparum Strain 3D-7",50.96 ± 0.361%
same,inhibition at 202.71 µM,"[2]; Plasmodium falciparum, 202.71 μM, read-out: Growth inhibition of P. falciparum Strain 3D-7",57.1 ± 1.57%
same,inhibition at 405.43 µM,"[2]; Plasmodium falciparum, 405.43 μM, read-out: Growth inhibition of P. falciparum Strain 3D-7",64.51 ± 0.418%
same,inhibition at 810.86 µM,"[2]; Plasmodium falciparum, 810.86 μM, read-out: Growth inhibition of P. falciparum Strain 3D-7",74 ± 0.923%
same,IC50,[2]; Plasmodium falciparum,85.3 ± 4.87 µM
same,antiplasmodial activity category on P. falciparum 3D-7,[2],moderate (moderate (IC50 20–100 μM))
same,inhibition at 50.68 µM,"[3]; Plasmodium falciparum, FCR3, 50.68 μM, read-out: Growth inhibition of P. falciparum Strain FCR-3",47.4 ± 0.736%
same,inhibition at 101.36 µM,"[3]; Plasmodium falciparum, FCR3, 101.36 μM, read-out: Growth inhibition of P. falciparum Strain FCR-3",49.8 ± 3.36%
same,inhibition at 202.71 µM,"[3]; Plasmodium falciparum, FCR3, 202.71 μM, read-out: Growth inhibition of P. falciparum Strain FCR-3",56.4 ± 3.79%
same,inhibition at 405.43 µM,"[3]; Plasmodium falciparum, FCR3, 405.43 μM, read-out: Growth inhibition of P. falciparum Strain FCR-3",61.2 ± 3.02%
same,inhibition at 810.86 µM,"[3]; Plasmodium falciparum, FCR3, 810.86 μM, read-out: Growth inhibition of P. falciparum Strain FCR-3",72.9 ± 1.34%
same,IC50,"[3]; Plasmodium falciparum, FCR3",89.9 ± 7.69 µM
same,antiplasmodial activity category on P. falciparum FCR-3,[3],moderate (moderate (IC50 20–100 μM))
same,IC50,[4]; 24 hours incubation,331 µM
same,IC50,[4]; [9],335 µM
same,inhibition at 63.25 µM,"[4]; Chlorocebus sabaeus, Vero, 24 h, 63.25 μM, read-out: Vero cell growth inhibition after 24 hours incubation",19%
same,inhibition at 126.49 µM,"[4]; Chlorocebus sabaeus, Vero, 24 h, 126.49 μM, read-out: Vero cell growth inhibition after 24 hours incubation",32.5%
same,inhibition at 253.39 µM,"[4]; Chlorocebus sabaeus, Vero, 24 h, 253.39 μM, read-out: Vero cell growth inhibition after 24 hours incubation",43.2%
same,inhibition at 506.78 µM,"[4]; Chlorocebus sabaeus, Vero, 24 h, 506.78 μM, read-out: Vero cell growth inhibition after 24 hours incubation",54.4%
same,inhibition at 1013.57 µM,"[4]; Chlorocebus sabaeus, Vero, 24 h, 1013.57 μM, read-out: Vero cell growth inhibition after 24 hours incubation",68.9%
same,inhibition at 2027.14 µM,"[4]; Chlorocebus sabaeus, Vero, 24 h, 2027.14 μM, read-out: Vero cell growth inhibition after 24 hours incubation",90%
same,IC50,"[4]; Chlorocebus sabaeus, Vero",82.6 µg/mL
same,Selectivity index 3D-7,[4],3.88
same,Selectivity index FCR-3,[4],3.68
same,cytotoxicity on MCF-7 (in words),[5],weak
same,cytotoxicity on WIDR (in words),[6],weak
same,cytotoxicity on Hela (in words),[7],weak
"Cc1c(O)ccc2c(=O)c3c(O)cccc3oc12 [HX5, 1,6-dihydroxy-5-methylxanthone]",inhibition at 20.64 µM,"[2]; Plasmodium falciparum, 20.64 μM, read-out: Growth inhibition of P. falciparum Strain 3D-7",37.9 ± 0.441%
same,inhibition at 41.28 µM,"[2]; Plasmodium falciparum, 41.28 μM, read-out: Growth inhibition of P. falciparum Strain 3D-7",45 ± 0.563%
same,inhibition at 82.56 µM,"[2]; Plasmodium falciparum, 82.56 μM, read-out: Growth inhibition of P. falciparum Strain 3D-7",54.2 ± 1.57%
same,inhibition at 165.13 µM,"[2]; Plasmodium falciparum, 165.13 μM, read-out: Growth inhibition of P. falciparum Strain 3D-7",75.4 ± 1.29%
same,inhibition at 330.25 µM,"[2]; Plasmodium falciparum, 330.25 μM, read-out: Growth inhibition of P. falciparum Strain 3D-7",93.3 ± 0.956%
same,IC50,[2]; Plasmodium falciparum,46.69 ± 0.29 µM
same,antiplasmodial activity category on P. falciparum 3D-7,[2],moderate (moderate (IC50 20–100 μM))
same,inhibition at 20.64 µM,"[3]; Plasmodium falciparum, FCR3, 20.64 μM, read-out: Growth inhibition of P. falciparum Strain FCR-3",33.63 ± 0.327%
same,inhibition at 41.28 µM,"[3]; Plasmodium falciparum, FCR3, 41.28 μM, read-out: Growth inhibition of P. falciparum Strain FCR-3",41.14 ± 0.396%
same,inhibition at 82.56 µM,"[3]; Plasmodium falciparum, FCR3, 82.56 μM, read-out: Growth inhibition of P. falciparum Strain FCR-3",46.5 ± 0.816%
same,inhibition at 165.13 µM,"[3]; Plasmodium falciparum, FCR3, 165.13 μM, read-out: Growth inhibition of P. falciparum Strain FCR-3",73.5 ± 1.6%
same,inhibition at 330.25 µM,"[3]; Plasmodium falciparum, FCR3, 330.25 μM, read-out: Growth inhibition of P. falciparum Strain FCR-3",84.7 ± 0.902%
same,IC50,"[3]; Plasmodium falciparum, FCR3",59.7 ± 0.78 µM
same,antiplasmodial activity category on P. falciparum FCR-3,[3],moderate (moderate (IC50 20–100 μM))
same,IC50,[4]; 24 hours incubation,418 µM
same,IC50,[4]; [9],459 µM
same,inhibition at 64.4 µM,"[4]; Chlorocebus sabaeus, Vero, 24 h, 64.40 μM, read-out: Vero cell growth inhibition after 24 hours incubation",-5.19%
same,inhibition at 128.8 µM,"[4]; Chlorocebus sabaeus, Vero, 24 h, 128.80 μM, read-out: Vero cell growth inhibition after 24 hours incubation",27.9%
same,inhibition at 258.01 µM,"[4]; Chlorocebus sabaeus, Vero, 24 h, 258.01 μM, read-out: Vero cell growth inhibition after 24 hours incubation",37.8%
same,inhibition at 516.02 µM,"[4]; Chlorocebus sabaeus, Vero, 24 h, 516.02 μM, read-out: Vero cell growth inhibition after 24 hours incubation",48.3%
same,inhibition at 1032.03 µM,"[4]; Chlorocebus sabaeus, Vero, 24 h, 1032.03 μM, read-out: Vero cell growth inhibition after 24 hours incubation",68.1%
same,inhibition at 2064.07 µM,"[4]; Chlorocebus sabaeus, Vero, 24 h, 2064.07 μM, read-out: Vero cell growth inhibition after 24 hours incubation",88.8%
same,IC50,"[4]; Chlorocebus sabaeus, Vero",111 µg/mL
same,Selectivity index 3D-7,[4],8.94
same,Selectivity index FCR-3,[4],6.99
same,cytotoxicity on MCF-7 (in words),[5],weak
same,cytotoxicity on WIDR (in words),[6],weak
same,cytotoxicity on Hela (in words),[7],weak
pentaacetylxanthone,heme polymerization inhibitory activity (in words),[8],inactive
pentametoxyxanthone,heme polymerization inhibitory activity (in words),[8],inactive
